Laboratory results published in patent publication US8912224B2, “Substituted 2-(chroman-6-yloxy)-thiazoles and their use as pharmaceuticals” (Sanofi, priority 2011, dated 2014).

What was measured:
human NCX1 [1] = molecular target: T1, human NCX1 (Homo sapiens (Human), UniProt P32418); test: Inhibition of Ca2+ influx into cells (NCX1 reverse mode), FLIPR Fluo-4 assay; assay type: cell-based; settings: inhibition of NCX1 in reverse mode (Ca2+ influx into cells); read-out: NCX1rv IC50
Excerpt: (§1) The sodium/calcium exchanger NCX1 can transport calcium ions and sodium ions through the cell membrane. The transport is an exchange of Ca^2+and Na^+in two directions depending on membrane potential and ion gradients. At the first direction, named “forward mode” or “calcium export mode”, Ca^2+is transported out of the cell and Na^+ is transported into the cell. At the other direction, named “reverse mode” or “calcium import mode”, the transport directions are vice versa. The effect of the compounds of the invention on NCX1 was determined in CHO cells stably expressing human NCX1 (gene symbol SLC8A1; cf. WO 2009/115238). The assay is based on the monitoring of intracellular Ca^2+concentrations using a calcium-sensitive fluorescence dye which is detected by means of a FLIPR device (Fluorimetric Imaging Plate Reader, Molecular Devices).
Assay Technology—Reverse Mode
The assay is based on the monitoring of intracellular Ca^2+concentrations using the calcium-sensitive dye Fluo-4. CHO cells expressing NCX1 were loaded with the dye by means of the acetoxymethyl ester Fluo-4 AM (Invitrogen, F14202), which is cleaved intracellularly by esterase activity to yield the charged species of free Fluo-4. After an preincubation period with the test compound, Gramicidine (Sigma, G5002) was added. Gramicidine is an ionophor for Na^+ions mediating an increase of intracellular Na^+ions. Consequently, intracellular Na^+ions are exchanged against extracellular Ca^2+ions (Ca^2+influx, reverse mode). The intracellular elevation of Ca^2+ ions was detected by measuring the fluorescence of Fluo-4 at a wavelength of 520 nm by a FLIPR device.
Briefly, for the reverse mode transport assay 18000 cells per well were seeded into a 96 well microplate (Corning COSTAR 3904) and incubated overnight in culture medium (1× Nut Mix F12 (Ham) (Gibco, 21765-029); 10% (v/v) fetal calf serum (PAA Gold, A15-649); 450 μg/ml Geneticin (Gibco, 10131-027)). A total volume of 100 μl medium per well was used. For the preparation of the FLIPR assay, the culture medium was removed from the plates and 100 μl of dye solution (2 μM Fluo-4 AM; 0.02% (v/v) Pluronic F-127 (20%, Invitrogen, P3000MP); 0.1% (v/v) bovine albumin solution (30% (v/v), Sigma, A9205) in assay buffer (133.8 mM NaCl (Sigma, S5886); 4.7 mM KCl (Sigma, P3911); 1.25 mM MgCl2 (Merck, 1.05833.0250); 3.5 mM CaCl2 (Merck, 1.02083.0250); 5 mM glucose (Sigma, G7021); 10 mM Hepes (Sigma, H4034); 0.01% (v/v) Pluronic F-127 (5%, Sigma, P2443); 2.5 mM Probenecid (Maybridge, SB00915EB); pH 7.4)) were added into each well. The plates were incubated in the dark at room temperature for 80 min. After the incubation period, the dye solution was removed and the wells were washed with 100 μl of assay buffer. Then 80 μl of a solution of the test compound in assay buffer in different concentrations were added into the wells. The plates were incubated at 16° C. for 45 min. Meanwhile a 60 μM solution of Gramicidine in assay buffer (4° C.) was prepared and stored in the wells of a 96 well microplate (96 well microplate, polypropylene, U-shape (Greiner Bio-One, 650201)) at 4° C. until measurement was started. The fluorescence monitoring was performed at 240 measuring points with measurement intervals of 2 sec. After the fifth measuring point, 40 μl of the Gramicidine solution were added to each well of the assay plates to give a final Gramicidine concentration of 20 μM. For the determination of the IC50 values the minimal fluorescence value was subtracted from the maximal fluorescence value for all measuring points. The calculation of the IC50 values via the percentage inhibitions of Ca^2+influx into cells (reverse mode) effected by the test compound was performed in Biost@t Speed 2.0.

Sprague-Dawley rats = test: In vivo method for determining the effect on heart contractility (left ventricular dp/dtmax) in anesthetized rats; settings: rat, versus solvent control; for Contractility increase (%): i.v. infusion; for change in vivo at 0.1 mg/kg / change in vivo at 0.3 mg/kg / change in vivo at 1 mg/kg: iv, i.v. bolus injection, read-out: Contractility increase (%)
Procedure: B) In vivo Method for Determining the Effect on Heart Contractility Adult male Sprague-Dawley rats (Harlan […], Germany) weighing 340 to 370 g were anesthetized with pentobarbital (100 mg/kg i.p.) and ventilated with a mixture of oxygen (40%) and room air (60%) at a tidal volume of 1 ml/100 g at 60 breaths/min. Body temperature was maintained at 36.5±0.3° C. with a heating lamp and was monitored with a rectal thermo sensor. Systemic blood pressure was measured in the left carotid artery using a pressure transducer (Combitrans; B. Braun Melsungen AG, Melsungen, Germany) connected to a DC-bridge-amplifier (PLUGSYS/ADC Type 663; Harvard Apparatus GmbH, March-Hugstetten, Germany). The electrocardiogram was measured as lead II via subcutaneously placed electrodes connected to a Heart-Rate-Module ([…] Type 669; Harvard Apparatus GmbH, March-Hugstetten, Germany). A micro-tip catheter (2 French, SPR-320; Millar Instruments, Houston, Tex., USA) was placed via the right carotid artery into the left ventricle, and the left ventricular pressure (LVP) and the end diastolic pressure (EDP) were continuously measured. Registration of the hemodynamic data was performed via an analog digital converter by a personal computer using Notocord software (HEM version 3.5). Left ventricular contractility (dp/dtmax) and relaxation (dp/dtmin) were calculated from the LVP signal. For intravenous administration of the test compounds, the left jugular vein was prepared and a PP-50 catheter was inserted. Test compounds were administered either by intravenous bolus injection or by intravenous infusion by means of an infusion pump (Unita; B. Braun Melsungen AG, Melsungen, Germany). […] In a typical experiment, several dosages of the test compound were administered subsequently at increasing doses. Statistical significance of the data obtained with drug vs control experiments, in which solvent was administered, was evaluated with the 2-sided ANOVA test (program Everstat). Increases in left ventricular contractility (percent increase) by example compounds are given in Table 3 in comparison to control experiments in which solvent was administered.

human NCX1 [2] = molecular target: T1, human NCX1; test: Inhibition of Ca2+ efflux out of cells (NCX1 forward mode), FLIPR assay; assay type: cell-based; settings: CHO cells stably expressing human NCX1, Ionomycin 2 μM, read-out: NCX1fw IC50
Excerpt: as §1
Assay Technology—Forward Mode
The assay is based on the monitoring of intracellular Ca^2+concentrations using the PBX Calcium Assay Kit from BD (Becton, Dickinson and Company) with calcium indicator dye 51-9000177BKa (BD, 640177), CHO cells expressing NCX1 were loaded with the dye, and after a preincubation period with the test compound, lonomycin (Calbiochem, 407950) was added. Ionomycin is an ionophor for Ca^2+ions mediating an increase of intracellular Ca^2+ions. Consequently, intracellular Ca^2+ions are exchanged against extracellular Na^+ions (Ca^2+efflux, forward mode). The decrease of intracellular Ca^2+ions was detected by measuring the fluorescence of the calcium indicator dye at a wavelength of 520 nm by a FLIPR device.
Briefly, similarly as for the reverse mode, for the forward mode transport assay 18000 cells per well were seeded into a 96 well microplate (Corning COSTAR 3904) and incubated overnight in culture medium (cf. above). A total volume of 100 μl medium per well was used. For the preparation of the FLIPR assay, the culture medium was removed from the plates and 100 μl of assay buffer (133.8 mM NaCl (Sigma, S5886); 4.7 mM KCl (Sigma, P3911); 1.25 mM MgCl2 (Merck, 1.05833.0250); 3.5 mM CaCl2 (Merck, 1.02083.0250); 5 mM glucose (Sigma. G7021); 10 mM Hepes (Sigma, H4034); pH 7.4)) were added to each well in a washing step. Assay buffer was removed, and 100 μl of a solution of the test compound in assay buffer in different concentrations were added into the wells. Further, 100 μl of dye solution (0.09% (v/v) calcium indicator dye, 9.1% (v/v) signal enhancer (from PBX Calcium Assay Kit); in assay buffer) were added into each well. The plates were incubated in the dark at room temperature for 60 min. Meanwhile a 10 μM solution of lonomycin in assay buffer (additionally containing 0.05% fetal calf serum (cf. above); 4° C.) was prepared and stored in the wells of a 96 well microplate (96 well microplate, polypropylene, U-shape (Greiner Bio-One, 650201)). The fluorescence monitoring was performed at 60 measuring points with measurement intervals of 2 sec. After the fifth measuring point, 50 μl of the lonomycin solution were added to each well of the assay plate to give a final lonomycin concentration of 2 μM. For the determination of the IC50 values the minimal fluorescence value was subtracted from the maximal fluorescence value for the fifteenth to fifty-fifth measuring points. The calculation of the IC50 values via the percentage inhibitions of Ca^2+efflux out of cells (forward mode) effected by the test compound was performed in Biost@t Speed 2.0. “NCX1fw IC50” in Table 2 means the IC50 value for inhibition of NCX1 in forward mode (in μM (micromol/liter)).

T1 sequence (P32418 whole entry, looked up): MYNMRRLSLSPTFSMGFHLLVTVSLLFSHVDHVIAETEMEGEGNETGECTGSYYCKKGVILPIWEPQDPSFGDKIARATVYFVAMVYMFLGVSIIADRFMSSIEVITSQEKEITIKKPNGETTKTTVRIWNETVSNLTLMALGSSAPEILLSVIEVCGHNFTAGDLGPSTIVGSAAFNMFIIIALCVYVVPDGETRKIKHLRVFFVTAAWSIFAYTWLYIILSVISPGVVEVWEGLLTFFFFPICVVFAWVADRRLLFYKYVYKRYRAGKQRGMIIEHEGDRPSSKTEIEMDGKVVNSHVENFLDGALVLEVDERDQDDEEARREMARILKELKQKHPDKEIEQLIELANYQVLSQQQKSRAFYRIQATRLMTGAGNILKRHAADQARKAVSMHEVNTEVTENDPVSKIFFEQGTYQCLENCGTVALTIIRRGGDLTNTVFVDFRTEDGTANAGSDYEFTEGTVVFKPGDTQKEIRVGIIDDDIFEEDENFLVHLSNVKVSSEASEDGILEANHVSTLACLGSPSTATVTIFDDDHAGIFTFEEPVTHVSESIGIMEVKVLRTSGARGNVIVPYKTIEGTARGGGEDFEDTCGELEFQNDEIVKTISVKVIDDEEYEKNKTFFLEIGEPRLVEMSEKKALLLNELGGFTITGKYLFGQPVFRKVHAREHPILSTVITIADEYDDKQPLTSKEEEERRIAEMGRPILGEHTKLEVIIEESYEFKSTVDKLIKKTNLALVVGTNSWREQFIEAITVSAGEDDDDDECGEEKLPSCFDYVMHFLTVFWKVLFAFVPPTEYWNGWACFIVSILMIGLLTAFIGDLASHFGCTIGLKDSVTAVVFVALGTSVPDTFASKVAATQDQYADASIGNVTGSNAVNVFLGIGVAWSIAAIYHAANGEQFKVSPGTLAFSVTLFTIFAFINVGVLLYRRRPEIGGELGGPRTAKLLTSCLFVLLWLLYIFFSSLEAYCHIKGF

| Molecule | IC50 (human NCX1 [1]) [nM] | IC50 (human NCX1 [2]) [nM] | Contractility increase (%) (Sprague-Dawley rats; 0.03 mg/kg/min) | Contractility increase (%) (Sprague-Dawley rats; 0.1 mg/kg/min) | change in vivo at 0.1 mg/kg (Sprague-Dawley rats) [%] | change in vivo at 0.3 mg/kg (Sprague-Dawley rats) [%] | change in vivo at 1 mg/kg (Sprague-Dawley rats) [%] |
| --- | --- | --- | --- | --- | --- | --- | --- |
| CC[C@H](C)[C@H](NC(=O)c1cnc(Oc2ccc3c(c2)CCC(c2cccnc2)O3)s1)C(=O)O (stereo partly drawn) [compound 270, (23,3S)-3-Methyl-2-{[2-(2-pyridin-3-yl-chroman-6-yloxy)-thiazole-5-carbonyl]-amino}-pentanoic acid] | 12500 | – | – | – | – | – | – |
| Cc1ccccc1[C@@H]1CCc2cc(Oc3ncc(C(=O)NCCOP(=O)([O-])[O-])s3)ccc2O1.[Na+].[Na+] [Example 345, Phosphoric acid mono-(2-{[2-((S)-2-o-tolyl-chroman-6-yloxy)-thiazole-5-carbonyl]-amino}-ethyl)ester disodium salt] | – | – | 32 | 85 | – | – | – |
| O=C(NC1CC1)c1cnc(Oc2ccc3c(c2)CCC(c2ccccc2)O3)s1 (stereo not drawn) [Example 315, 2-(2-Phenyl-chroman-6-yloxy)-thiazole-5-carboxylic acid cyclopropylamide] | – | 3300 | – | – | 28 | 41 | 64 |
| Cc1ccccc1C1CCc2cc(Oc3ncc(CNC(=O)CN4CCCC4=O)s3)ccc2O1 (stereo not drawn) [Example 327, 2-(2-Oxo-pyrrolidin-1-yl)-N-[2-(2-o-tolyl-chroman-6-yloxy)-thiazol-5-ylmethyl]-acetamide] | 500 | 3000 | – | – | 9 | 27 | 55 |
| 2-[2-(2,6-Dimethyl-phenyl)-chroman-6-yloxy]-thiazole-5-carboxylic acid [2-(2-oxo-imidazolidin-1-yl)-ethyl]-amide [compound 347] | 1500 | – | – | – | – | – | – |
| CCCNC(=O)c1cnc(Oc2ccc3c(c2)CCC(c2cc(F)ccc2C)O3)s1 (stereo not drawn) [Example 343, 2-[2-(5-Fluoro-2-methyl-phenyl)-chroman-6-yloxy]-thiazole-5-carboxylic acid propylamide] | 500 | 800 | – | – | 20 | 25 | 39 |

The next lines start with results.

| IC50 (human NCX1 [1]) [nM] | IC50 (human NCX1 [2]) [nM] | Molecule | Contractility increase (%) (Sprague-Dawley rats; 0.03 mg/kg/min) | Contractility increase (%) (Sprague-Dawley rats; 0.1 mg/kg/min) | change in vivo at 0.1 mg/kg (Sprague-Dawley rats) [%] | change in vivo at 0.3 mg/kg (Sprague-Dawley rats) [%] | change in vivo at 1 mg/kg (Sprague-Dawley rats) [%] |
| --- | --- | --- | --- | --- | --- | --- | --- |
| 300 | 350 | CCCNC(=O)c1cnc(Oc2ccc3c(c2)CCC(c2ccccc2C)O3)s1 (stereo not drawn) [Example 330, 2-(2-o-Tolyl-chroman-6-yloxy)-thiazole-5-carboxylic acid propylamide] | – | – | 50 | 86 | 161 |
| 100 | 200 | Cc1ccccc1[C@@H]1CCc2cc(Oc3ncc(C(=O)NCCO)s3)ccc2O1 [Example 326, 2-((S)-2-o-Tolyl-chroman-6-yloxy)-thiazole-5-carboxylic acid (2-hydroxy-ethyl)-amide] | – | – | 67 | 105 | 138 |
| 500 | 2100 | Cc1ccccc1C1CCc2cc(Oc3nc(C)c(C(=O)NCc4ccno4)s3)ccc2O1 (stereo not drawn) [Example 334, 4-Methyl-2-(2-o-tolyl-chroman-6-yloxy)-thiazole-5-carboxylic acid (isoxazol-5-ylmethyl)-amide] | – | – | 19 | 41 | 59 |
| 400 | – | Cc1csc(CCNCc2cnc(Oc3ccc4c(c3)CCC(c3ccccc3)O4)s2)n1 (stereo not drawn) [compound 151, [2-(4-Methyl-thiazol-2-yl)-ethyl]-[2-(2-phenyl-chroman-6-yloxy)-thiazol-5-ylmethy]-amine] | – | – | – | – | – |
| 400 | 700 | Cc1ccc(F)cc1C1CCc2cc(Oc3ncc(C(=O)NCCO)s3)ccc2O1 (stereo not drawn) [Example 342, 2-[2-(5-Fluoro-2-methyl-phenyl)-chroman-6-yloxy]-thiazole-5-carboxylic acid (2-hydroxy-ethyl)-amide] | – | – | 38 | 73 | 146 |
